One assay addresses DGKα (Homo sapiens (Human), UniProt P23743). Kind of assay: Biochemical DGK IC50 assay (ADP-Glo, lipid micelle substrate), DGKα. Further: full length DGKα 7.5 nM. The settings on record: full length DGKα […], ATP 140 μM, DAG 80 μM. As for the experimental part: (§1) Enzymatic reactions of DGKζ, DGKα and DGKδ were performed using ADP-Glo assay with lipid micelle substrate. […] Full length DGKα (D21-10BG, SignalChem) and full length DGKδ (D23-10G, SignalChem) were purchased. Lipid micelle was prepared by dissolving DAG (Sigma, 317505-10MG) and PS (Sigma, P7769-100MG) with chloroform which was furtherly removed by rotary evaporation. The resulted product was resuspended in buffer containing 25 mM HEPES pH 7.0, 0.5 mM EDTA and 160 mM Octyl P-D glucopyranoside by vigorous mixing and ultrasonic (IID, Scientz).
(§2) The inhibition activities testing for the compound disclosed herein were carried out at room temperature in assay buffer containing 50 mM HEPES, 10 mM MgCl2, 0.01% BSA, 0.1 mM Na3VO4, 0.005% Tween-20 and 0.01 mM CaCl2. Compounds in DMSO were dispensed into wells of a black 384 well plate (Corning 4514) using D300e digital dispenser (Tecan). […] 3 μL 2× enzyme solution was added to wells. […] After 1 hour reaction, 5 μL ADP-Glo reagent (Promga V9101) was added and incubated for 40 minutes. 10 μL Kinase Detection reagent was added and incubated for 30 minutes. Luminescence was measured on a microplate reader (PHERAstar FSX, BMG labtech). The IC50s are calculated based on inhibition of enzyme activity in the presence of increasing concentrations of compounds.
For orientation: ADP-Glo turns the ADP formed in a reaction into a luminescent signal.

The target in the next assay is DGKζ (Homo sapiens (Human), UniProt Q13574). Kind of assay: Biochemical DGK IC50 assay (ADP-Glo, lipid micelle substrate), DGKζ. The settings on record: full length DGKζ 0.5 nM, ATP 140 μM, DAG 80 μM. The procedure: as §1, §2
Human His-TEV-DGK-zeta-pFastBac1 and human baculovirus samples was generated using the Bac-to-Bac baculovirus expression system (Invitrogen) according to the manufacturer's protocol. The DNA used for expression of DGK-zeta, have SEQ ID Nos: 1. Baculovirus amplification was achieved using infected SF9 cells at 1:2000 virus/cells ratios, and grown for 96 hours at 27° C. post-transfected.
The expression scaled up for each protein was carried out in the […] from CORNING. 4 L of 3×10^6 cells/mL Sf9 cells (Expression System, Invitrogen) grown in SF900™ II SFM insect medium (Expression System) was infected with virus stock at 1:200 virus/cells ratio, and grown for 48 hours at 27° C. post-transfection. The infected cell culture was harvested by centrifugation at 6000 rpm for 15 min 4° C. in a SORVALL LYNX6000 centrifuge. The cell pellets were stored at −80° C.
Full length human DGKζ produced as described above, was purified from Sf9 baculovirus-infected insect cell paste. The cells were lysed using sonication method, and the lysates were clarified by centrifugation.

Among the data in patent US20250346597A1, “CONDENSED HETEROCYCLIC COMPOUNDS AS INHIBITOR OF DIACYLGLYCEROL KINASES” (BEONE MEDICINES I GMBH, priority 2023, published 2025) are IC50 values, retold here.

pIC50: −log10 of the molar value.

Sequence of DGKζ (Q13574 other isoform, or with tags, fused parts or gaps): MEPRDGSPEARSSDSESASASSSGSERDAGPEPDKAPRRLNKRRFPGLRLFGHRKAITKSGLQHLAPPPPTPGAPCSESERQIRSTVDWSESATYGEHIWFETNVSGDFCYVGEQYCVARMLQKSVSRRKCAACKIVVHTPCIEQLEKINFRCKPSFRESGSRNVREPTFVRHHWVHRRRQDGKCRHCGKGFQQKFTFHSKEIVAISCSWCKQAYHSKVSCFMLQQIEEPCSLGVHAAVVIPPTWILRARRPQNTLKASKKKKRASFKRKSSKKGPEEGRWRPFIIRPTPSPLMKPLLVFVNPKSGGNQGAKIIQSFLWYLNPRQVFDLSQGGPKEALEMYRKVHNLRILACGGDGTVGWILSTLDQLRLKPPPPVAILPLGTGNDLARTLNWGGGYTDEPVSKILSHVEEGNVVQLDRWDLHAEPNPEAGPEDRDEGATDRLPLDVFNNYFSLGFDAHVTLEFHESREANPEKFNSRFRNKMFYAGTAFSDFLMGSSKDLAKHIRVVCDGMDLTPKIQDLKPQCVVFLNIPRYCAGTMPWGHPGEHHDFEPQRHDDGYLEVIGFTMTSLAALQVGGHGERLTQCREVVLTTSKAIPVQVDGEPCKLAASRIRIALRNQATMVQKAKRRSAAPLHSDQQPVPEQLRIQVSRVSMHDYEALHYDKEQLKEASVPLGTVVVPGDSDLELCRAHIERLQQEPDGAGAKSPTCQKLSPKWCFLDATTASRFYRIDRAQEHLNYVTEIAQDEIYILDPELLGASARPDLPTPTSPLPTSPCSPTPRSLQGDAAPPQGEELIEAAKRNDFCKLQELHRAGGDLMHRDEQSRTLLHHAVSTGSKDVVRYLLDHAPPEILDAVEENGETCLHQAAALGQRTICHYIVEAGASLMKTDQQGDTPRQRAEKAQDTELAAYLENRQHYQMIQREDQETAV
Sequence of DGKα (P23743 whole entry): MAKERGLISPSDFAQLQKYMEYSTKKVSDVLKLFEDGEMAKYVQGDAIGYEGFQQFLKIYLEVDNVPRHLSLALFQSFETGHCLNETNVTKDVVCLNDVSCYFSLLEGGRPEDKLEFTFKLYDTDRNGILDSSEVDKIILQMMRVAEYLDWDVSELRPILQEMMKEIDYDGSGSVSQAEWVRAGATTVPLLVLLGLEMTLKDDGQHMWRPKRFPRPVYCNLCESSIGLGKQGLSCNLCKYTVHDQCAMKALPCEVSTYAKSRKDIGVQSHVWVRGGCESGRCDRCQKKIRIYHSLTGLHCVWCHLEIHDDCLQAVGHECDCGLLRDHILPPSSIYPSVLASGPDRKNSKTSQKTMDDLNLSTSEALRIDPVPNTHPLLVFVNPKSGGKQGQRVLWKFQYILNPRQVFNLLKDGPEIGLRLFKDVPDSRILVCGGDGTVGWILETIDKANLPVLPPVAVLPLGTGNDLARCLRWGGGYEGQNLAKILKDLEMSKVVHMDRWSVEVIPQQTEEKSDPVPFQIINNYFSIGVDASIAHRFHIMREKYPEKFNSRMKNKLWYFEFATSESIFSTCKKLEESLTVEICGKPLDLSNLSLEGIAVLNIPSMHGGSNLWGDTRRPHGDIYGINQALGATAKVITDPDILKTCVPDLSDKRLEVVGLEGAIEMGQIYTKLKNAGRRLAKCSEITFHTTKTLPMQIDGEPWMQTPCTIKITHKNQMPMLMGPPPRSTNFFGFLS

As a reminder, the pIC50 is −log10 of the IC50, conventionally taken in molar units. `CC[C@H]1CN(C(C)c2ccc(COC)nc2)[C@H](CC)CN1c1cc(=O)n(C)c2cn(CC#N)nc12` (single isomer, unassigned) [Compound A42b]: the pIC50 against DGKα is 5.18; against DGKζ, 5.30.
Take `CC[C@H]1CN(C(C)c2ccc(C3CC3)nc2F)[C@H](CC)CN1c1cc(=O)n(C)c2cn(CC#N)nc12` (single isomer, unassigned) [Compound A45a]: the pIC50 against DGKα was 6.69; against DGKζ it was 7.52.
Regarding `CC[C@H]1CN(C(C)c2ccc(C3CC3)nc2F)[C@H](CC)CN1c1cc(=O)n(C)c2cn(CC#N)nc12` (single isomer, unassigned) [Compound A45b], the pIC50 is 6.14 at DGKα and 6.06 against DGKζ.
Consider `CC[C@H]1CN(C(C)c2ccc(C(C)(C)F)nc2)[C@H](CC)CN1c1cc(=O)n(C)c2cn(CC#N)nc12` (single isomer, unassigned) [Compound A46a], for which the pIC50 on DGKα is 6.39; against DGKζ, 8.19.
As to `CC[C@H]1CN(C(C)c2ccc(C(C)(C)F)nc2)[C@H](CC)CN1c1cc(=O)n(C)c2cn(CC#N)nc12` (single isomer, unassigned) [Compound A46b], the pIC50 is 6.04 against DGKα and 6.40 against DGKζ.
The like results for `CC[C@H]1CN(C(C)c2cnc(C3CC3)cc2F)[C@H](CC)CN1c1cc(=O)n(C)c2cn(CC#N)nc12` (single isomer, unassigned) [Compound A47a] were, in that order, 5.92 and 7.06.
Regarding `CC[C@H]1CN(C(C)c2cnc(C3CC3)cc2F)[C@H](CC)CN1c1cc(=O)n(C)c2cn(CC#N)nc12` (single isomer, unassigned) [Compound A47b], the pIC50 is 5.45 at DGKα and 5.95 against DGKζ.
In the case of `CC[C@H]1CN(C(C)c2ccc(C3CC3)nc2)[C@H](CC)CN1c1c(F)c(=O)n(C)c2cn(CC#N)nc12` (single isomer, unassigned) [Compound A48a], the values for the negative logarithm of the IC50 (pIC50) against DGKα and on DGKζ were 6.62 and 7.23, respectively.
In the case of `CC[C@H]1CN(C(C)c2ccc(C3CC3)nc2)[C@H](CC)CN1c1c(F)c(=O)n(C)c2cn(CC#N)nc12` (single isomer, unassigned) [Compound A48b], the values for the pIC50 on DGKα and against DGKζ were 6.10 and 6.97, respectively.
Take `CC[C@H]1CN(C(C)c2ccc(OC(C)C)cn2)[C@H](CC)CN1c1cc(=O)n(C)c2cn(CC#N)nc12` (single isomer, unassigned) [Compound A51b]: the pIC50 on DGKα was 6.47; against DGKζ it was 5.74.
Turning to `CC[C@H]1CN(C(C)c2ccc(C)c(C)n2)[C@H](CC)CN1c1cc(=O)n(C)c2cn(CC#N)nc12` (single isomer, unassigned) [Compound A54a], the pIC50 was 7.12 at DGKα and 7.48 at DGKζ.
Turning to `CC[C@H]1CN(C(C)c2ccc(C)c(C)n2)[C@H](CC)CN1c1cc(=O)n(C)c2cn(CC#N)nc12` (single isomer, unassigned) [Compound A54b], the pIC50 against DGKα and on DGKζ was 5.72 in each case.
Regarding `CC[C@H]1CN(C(C)c2ccc3c(c2)OCO3)[C@H](CC)CN1c1cc(=O)n(C)c2cn(CC#N)nc12` (single isomer, unassigned) [Compound A68a], the figures for the pIC50 at DGKα and on DGKζ were 7.01 and 7.31, respectively.
`CC[C@H]1CN(C(C)c2ccc3c(c2)OCO3)[C@H](CC)CN1c1cc(=O)n(C)c2cn(CC#N)nc12` (single isomer, unassigned) [Compound A68b]: the figures for the pIC50 on DGKα and against DGKζ were 5.86 and 5.59, respectively.
`CC[C@H]1CN(C(C)c2ccc3c(n2)OCO3)[C@H](CC)CN1c1cc(=O)n(C)c2cn(CC#N)nc12` (single isomer, unassigned) [Compound A75a]: the pIC50 on DGKα is 7.13; against DGKζ, 6.86.
`CC[C@H]1CN(C(C)c2ccc3c(n2)OCO3)[C@H](CC)CN1c1cc(=O)n(C)c2cn(CC#N)nc12` (single isomer, unassigned) [Compound A75b]: the figures for the pIC50 against DGKα and on DGKζ were 5.95 and 5.30, respectively.
As to `CC[C@H]1CN(C(C)c2ccc3ccnn3c2)[C@H](CC)CN1c1cc(=O)n(C)c2cn(CC#N)nc12` (single isomer, unassigned) [Compound A77a], the negative-log IC50 (pIC50) on DGKα is 6.75; at DGKζ it was 7.27.
In the case of `CC[C@H]1CN(C(C)c2ccc3ccnn3c2)[C@H](CC)CN1c1cc(=O)n(C)c2cn(CC#N)nc12` (single isomer, unassigned) [Compound A77b], the negative-log IC50 (pIC50) on DGKα is 6.13; on DGKζ, 6.07.
Turning to `CC[C@H]1CN(C(C)c2ccn3ccnc3c2)[C@H](CC)CN1c1cc(=O)n(C)c2cn(CC#N)nc12` (single isomer, unassigned) [Compound A80a], the figures for the negative-log IC50 (pIC50) at DGKα and at DGKζ were 6.85 and 6.03, respectively.
As for `CC[C@H]1CN(C(C)c2ccn3ccnc3c2)[C@H](CC)CN1c1cc(=O)n(C)c2cn(CC#N)nc12` (single isomer, unassigned) [Compound A80b], the pIC50 was 5.52 at DGKα and 5.16 against DGKζ.
The like results for `CC[C@H]1CN(C(C)c2ccc3nccn3c2)[C@H](CC)CN1c1cc(=O)n(C)c2cn(CC#N)nc12` (single isomer, unassigned) [Compound A82a] were, in that order, 6.96 and 6.31.
`CC[C@H]1CN(C(C)c2ccc3nccn3c2)[C@H](CC)CN1c1cc(=O)n(C)c2cn(CC#N)nc12` (single isomer, unassigned) [Compound A82b]: the negative logarithm of the IC50 (pIC50) on DGKα was 5.52; at DGKζ it was 5.07.
Turning to `CC[C@H]1CN(C(C)c2ccc3cncn3c2)[C@H](CC)CN1c1cc(=O)n(C)c2cn(CC#N)nc12` (single isomer, unassigned) [Compound A83a], the pIC50 against DGKα was 6.19; at DGKζ it was 5.06.
Take `CC[C@H]1CN(C(C)c2ccc3cncn3c2)[C@H](CC)CN1c1cc(=O)n(C)c2cn(CC#N)nc12` (single isomer, unassigned) [Compound A83b]: the pIC50 was 7.05 on DGKα and 5.74 against DGKζ.
As to `CC[C@H]1CN(C(C)c2ccc3ncoc3c2)[C@H](CC)CN1c1cc(=O)n(C)c2cn(CC#N)nc12` (single isomer, unassigned) [Compound A84a], the pIC50 on DGKα was 7.17; on DGKζ it was 7.37.
Turning to `CC[C@H]1CN(C(C)c2ccc3ncoc3c2)[C@H](CC)CN1c1cc(=O)n(C)c2cn(CC#N)nc12` (single isomer, unassigned) [Compound A84b], the negative-log IC50 (pIC50) against DGKα is 5.93; at DGKζ, 5.50.
In the same order, the values of `CC[C@@H]1CN(c2cc(=O)n(C)c3cn(CC#N)nc23)[C@@H](C)CN1[C@@H](C)c1ccc2ncoc2c1` (single isomer, unassigned) [Compound A85a] are 6.77 and 7.11.
In the same order, the values of `CC[C@@H]1CN(c2cc(=O)n(C)c3cn(CC#N)nc23)[C@@H](C)CN1[C@H](C)c1ccc2ncoc2c1` (single isomer, unassigned) [Compound A85b] are 5.69 and 5.46.
The like results for `CC[C@H]1CN(C(C)c2ccc(NC(C)=O)c(O)c2F)[C@H](CC)CN1c1cc(=O)n(C)c2cn(CC#N)nc12` (single isomer, unassigned) [Compound A87a] were, in that order, 5.70 and 5.55.
As for `CC[C@H]1CN(C(C)c2ccc(NC(C)=O)c(O)c2F)[C@H](CC)CN1c1cc(=O)n(C)c2cn(CC#N)nc12` (single isomer, unassigned) [Compound A87b], the values for the pIC50 against DGKα and at DGKζ were 4.45 and less than 5.00, respectively.
